# Experimental data from patent publication US11654136B2, “Phosphoinositide 3-kinase inhibitor with a zinc binding moiety” (Curis, Inc., priority 2011, dated 2023).
# “Also recorded” adds a separate entry of the source. Read-outs that look alike come from different tables or passages of the source.
# Tests used:
# [1] = tested on: OPM2 (multiple myeloma tumor cell line) xenograft tumors; test: OPM2 xenograft tumor model; type: in vivo, nude mice; conditions: oral 50 mg/kg twice a day, five days per week
# Description: (§1) SU-DHL4 (diffuse large B-cell lymphoma cell line), H2122 (human NSCLC cell line), Daudi (non-Hodgkin's lymphoma cell line), and OPM2 (multiple myeloma tumor cell line) cells were implanted into either nude or Scid (severe […] immune-deficient) mice. […]. […] The control groups were treated with vehicle using the same dosing schedule as the corresponding active group.
# (§2) In another study, the Daudi tumor group was dosed at 50 mg/Kg twice a day for five days per week. […] The SU-DHL4 tumor group was dosed at 100 mg/Kg orally or 50 mg/Kg intravenously.
# (§3) Tumors were measured during the study period with an electronic caliper, and body weights were measured twice a week. The following formula was used to calculate the tumor volume: […] Percentage of tumor volume change was used to describe compound activity over the treatment period.
# MM1S human MM xenograft = test: Combination with lenalidomide in the MM1S xenograft model; type: in vivo, SCID/Beige mice; conditions: 75 mg/Kg PO Qd (Mon-Fri); 17 days; single agent
# Description: Female SCID/Beige mice at age 4 weeks were housed in ventilated micro-isolator cages (INNOCAGE®IVC, Innovive Inc., San Diego, Calif.) in a controlled climate, fed with sterile high-fat diet (Problab-RMH 2000) ad libitum and provided with sterilized water. All housing and supplies for SCID/Beige mice were sterilized by autoclaving before use. Mice were inspected daily including weekends/holidays by trained animal facility personnel and investigators. All animal procedures were performed under sterile conditions within a biosafety cabinet (for injections) or laminar flow hood (for animal husbandry and non-invasive procedures).
# Cryopreserved MM1S human MM cells were thawed in a 37° C. water bath and cultured in RPMI medium plus 10% Fetal Bovine Serum (FBS) in a tissue culture incubator at 5% CO2. […] The implanted mice were monitored for general health and tumor development daily.
# Tumors were detectable about two weeks following implantation. Tumor size was measured with a caliper. […]
# During each animal study, tumors were measured with calipers, tumor size determined using the above mentioned formula, and tumor size changes in percentage calculated. Mouse body weights were measured with a scale twice per week. […] T/C values were calculated using the following formula: % T/C=100×ΔT/ΔC if ΔT>0. […]
# [2] = tested on: Salmonella typhimurium TA100
# Description: The tester strains used in the mutagenicity assay were Salmonella typhimurium tester strains TA98 (for detecting frame-shift reverse mutation) and TA100 (for detecting point reverse mutation). The assay was conducted in both the presence and absence of S9 mixture along with concurrent vehicle (DMSO, 20 μl/well) and positive controls in duplicate using 6-well plates. […] A reproducible two-fold increase (>2× of vehicle control) of revertant colonies over the daily average control value is considered a positive response of gene mutation for each strain.
# 2-nitrofluorene and sodium azide served as the positive controls in the absence of S9 for TA98 and TA100 respectively. 2-Aminoanthracene served as the positive controls in the presence of S9 for TA98 and TA100.
# [3] = tested on: SU-DHL4 (diffuse large B-cell lymphoma cell line) xenograft tumors; test: SU-DHL4 xenograft tumor model; type: in vivo, nude mice
# Description: as §1, §2, §3
# [4] = tested on: H2122 (human NSCLC cell line) xenograft tumors; test: H2122 xenograft tumor model; type: in vivo, nude mice
# Description: as §1, §2, §3
structure (smiles),measurement,setting,value
"COc1ccc(-c2nc(N3CCOCC3)c3sc(CN(C)c4ncc(C(=O)NO)cn4)cc3n2)cn1 [Compound 1, N-hydroxy-2-(((2-(6-methoxypyridin-3-yl)-4-morpholinothieno[3,2-d]pyrimidin-6-yl)methyl)(methyl)amino)pyrimidine-5-carboxamide]",Tumor growth,[1],efficacious
same,Tumor growth,MM1S human MM xenograft,more effective than Lenalidomide at either 12.5 or 25 mg/Kg PO as single agents
same,Background Lawn TA100,"[2]; +S9, 62.5 μg/well",4/4
same,"Revertants per well TA100, Mean","[2]; +S9, 62.5 μg/well",32
same,"Revertants per well TA100, well 1","[2]; +S9, 62.5 μg/well",34
same,"Revertants per well TA100, well 2","[2]; +S9, 62.5 μg/well",30
same,Background Lawn TA100,"[2]; +S9, 125 μg/well",4/4
same,"Revertants per well TA100, Mean","[2]; +S9, 125 μg/well",29
same,"Revertants per well TA100, well 1","[2]; +S9, 125 μg/well",28
same,"Revertants per well TA100, well 2","[2]; +S9, 125 μg/well",30
same,Background Lawn TA100,"[2]; +S9, 250 μg/well",4/4
same,"Revertants per well TA100, Mean","[2]; +S9, 250 μg/well",29
same,"Revertants per well TA100, well 1","[2]; +S9, 250 μg/well",30
same,"Revertants per well TA100, well 2","[2]; +S9, 250 μg/well",28
same,Background Lawn TA100,"[2]; +S9, 500 μg/well","3,sp/3,sp"
same,"Revertants per well TA100, Mean","[2]; +S9, 500 μg/well",35
same,"Revertants per well TA100, well 1","[2]; +S9, 500 μg/well",32
same,"Revertants per well TA100, well 2","[2]; +S9, 500 μg/well",37
same,Background Lawn TA100,"[2]; +S9, 1000 μg/well","3,mp/3,mp"
same,"Revertants per well TA100, Mean","[2]; +S9, 1000 μg/well",34
same,"Revertants per well TA100, well 1","[2]; +S9, 1000 μg/well",33
same,"Revertants per well TA100, well 2","[2]; +S9, 1000 μg/well",34
same,Mutagenic response TA100,"[2]; presence and absence of S9, up to 1000 μg/well",no evidence of a significant increase in the mean number of revertant colonies; also recorded: did not induce a positive mutagenic response
same,Background Lawn TA100,"[2]; −S9, 62.5 μg/well",4/4
same,"Revertants per well TA100, Mean","[2]; −S9, 62.5 μg/well",32
same,"Revertants per well TA100, well 1","[2]; −S9, 62.5 μg/well",34
same,"Revertants per well TA100, well 2","[2]; −S9, 62.5 μg/well",30
same,Background Lawn TA100,"[2]; −S9, 125 μg/well",4/4
same,"Revertants per well TA100, Mean","[2]; −S9, 125 μg/well",33
same,"Revertants per well TA100, well 1","[2]; −S9, 125 μg/well",32
same,"Revertants per well TA100, well 2","[2]; −S9, 125 μg/well",34
same,Background Lawn TA100,"[2]; −S9, 250 μg/well","4,sp/4,sp"
same,"Revertants per well TA100, Mean","[2]; −S9, 250 μg/well",32
same,"Revertants per well TA100, well 1","[2]; −S9, 250 μg/well",34
same,"Revertants per well TA100, well 2","[2]; −S9, 250 μg/well",29
same,Background Lawn TA100,"[2]; −S9, 500 μg/well","3,sp/3,sp"
same,"Revertants per well TA100, Mean","[2]; −S9, 500 μg/well",32
same,"Revertants per well TA100, well 1","[2]; −S9, 500 μg/well",33
same,"Revertants per well TA100, well 2","[2]; −S9, 500 μg/well",31
same,Background Lawn TA100,"[2]; −S9, 1000 μg/well","3,mp/3,mp"
same,"Revertants per well TA100, Mean","[2]; −S9, 1000 μg/well",27
same,"Revertants per well TA100, well 1","[2]; −S9, 1000 μg/well",28
same,"Revertants per well TA100, well 2","[2]; −S9, 1000 μg/well",26
same,Tumor growth,[3]; intravenous (IV) 50 mg/kg,strongly inhibited tumor growth
same,Tumor growth,[3]; orally (PO) 100 mg/kg,strongly inhibited tumor growth
same,Body weight,"[4]; oral 75 mg/Kg twice a day, H2122 tumor-bearing nude mice",body weight loss
same,Tumor growth,"[4]; oral 75 mg/kg twice a day, then 50 mg/Kg twice a day from Day-11, five days per week",efficacious
